Tested on: HeLa
Experiment: Antiproliferative activity against human HeLa cells by [3H]thymidine incorporation
Assay type: functional, cell-based

IC50	Structure (SMILES)
> 10000 nM	C[C@]12CC[C@@H](O)C[C@@H]1CC[C@@H]1[C@@H]2[C@@H](O)C[C@@]2(C)[C@H]1C[C@@H]1O[C@]3(CCCCO3)[C@](C)(O)[C@@H]12
> 10000 nM	CC1(C)C[C@@]2(O[C@H]3C[C@H]4[C@@H]5CC[C@H]6C[C@H](O)CC[C@]6(C)[C@H]5[C@@H](O)C[C@]4(C)[C@H]3[C@]2(C)O)OC1(C)C
200 nM	CC1(C)C[C@@]2(O[C@H]3C[C@H]4[C@@H]5CC[C@H]6C[C@H](O)CC[C@]6(C)[C@H]5[C@@H](O)C[C@]4(C)[C@H]3[C@@]2(C)O)OC1(C)C
4900 nM	CC1(C)CCC[C@]2(O[C@H]3C[C@H]4[C@@H]5CC[C@H]6C[C@H](O)CC[C@]6(C)[C@H]5[C@@H](O)C[C@]4(C)[C@H]3[C@@]2(C)O)O1
> 10000 nM	CC1(C)CO[C@@]2(C1)O[C@H]1C[C@H]3[C@@H]4CC[C@H]5C[C@H](O)CC[C@]5(C)[C@H]4[C@@H](O)C[C@]3(C)[C@H]1[C@@]2(C)O
2200 nM	CC1(C)C[C@]2(O[C@H]3C[C@H]4[C@@H]5CC[C@H]6C[C@H](O)CC[C@]6(C)[C@H]5[C@@H](O)C[C@]4(C)[C@H]3[C@@]2(C)O)OC1(C)C
3600 nM	CCC1(CC)CC[C@@]2(O[C@H]3C[C@H]4[C@@H]5CC[C@H]6C[C@H](O)CC[C@]6(C)[C@H]5[C@@H](O)C[C@]4(C)[C@H]3[C@@]2(C)O)O1
> 10000 nM	CC1(C)CO[C@]2(C1)O[C@H]1C[C@H]3[C@@H]4CC[C@H]5C[C@H](O)CC[C@]5(C)[C@H]4[C@@H](O)C[C@]3(C)[C@H]1[C@@]2(C)O
600 nM	CC1(C)CCC[C@@]2(O[C@H]3C[C@H]4[C@@H]5CC[C@H]6C[C@H](O)CC[C@]6(C)[C@H]5[C@@H](O)C[C@]4(C)[C@H]3[C@@]2(C)O)O1
> 10000 nM	CCC1(CC)CC[C@]2(O[C@H]3C[C@H]4[C@@H]5CC[C@H]6C[C@H](O)CC[C@]6(C)[C@H]5[C@@H](O)C[C@]4(C)[C@H]3[C@@]2(C)O)O1
1600 nM	C[C@]12CC[C@@H](O)C[C@@H]1CC[C@@H]1[C@@H]2[C@@H](O)C[C@@]2(C)[C@H]1C[C@@H]1O[C@@]3(CCCCO3)[C@](C)(O)[C@@H]12

Structure (SMILES)	IC50
C[C@H]1C[C@@]2(O[C@H]3C[C@H]4[C@@H]5CC[C@H]6C[C@H](O)CC[C@]6(C)[C@H]5[C@@H](O)C[C@]4(C)[C@H]3[C@@]2(C)O)OC1(C)C [HIPPURISTANOL]	70 nM

From ChEMBL document CHEMBL1157758, “Structural and stereochemical requirements of the spiroketal group of hippuristanol for antiproliferative activity” (Bioorg Med Chem Lett, 2010)
